According to paper PMC6222789, “CF3-Substituted Mollugin 2-(4-Morpholinyl)-ethyl ester as a Potential Anti-inflammatory Agent with Improved Aqueous Solubility and Metabolic Stability” (Molecules : A Journal of Synthetic Chemistry and Natural …, 2018):
Where two headings read alike, the source gives them in different places.

What was measured:
[1] = Metabolic stability, dog liver microsomes; format: in vitro ADME; conditions: for Metabolic Stability (% Remain, 30 min) Dog: 1 μM
Protocol: (§1) Pooled human liver microsomes (150 donor) and dog, rat, mouse liver microsomes were obtained from BD Gentest Co. (Woburn, MA, USA). NADPH regeneration system was obtained from Promega. S-Mephenytoin, 4-hydroxymephenytoin, and 1’-hydroxymidazolam were purchased from Ultrafine Chemical Co. (Manchester, UK). All other chemicals and solvents were of the highest grade available. The metabolic stability assay was performed by incubation of human or selected animal liver microsomes (most often dog, rat and mouse), at 37 °C with a test compound at a final concentration of 1 μM, in the presence of 0.5 mg/mL microsomal protein and NADPH regeneration system, in a total volume of 100 μL of 100 mM phosphate buffer, pH 7.4. The incubation was started by the addition of NADPH regeneration system and terminated with 40 μL of ice-cold acetonitrile at 0 and 30 min. Precipitated proteins were removed by centrifugation at 10,000× g for 5 min at 4 °C. Aliquots of the supernatant were injected onto an LC-MS/MS system. Incubations terminated prior to the addition of NADPH regeneration system (time point 0 min) were used as standards, defined as 100%. Percent of the parent compound remaining was calculated by comparing peak area.

[2] = test system: IL-6-induced adhesion of U937 monocytic cells to HT-29 cells; assay: IL-6-induced colonic epithelial cell adhesion assay; format: cell-based, human
Protocol: (§2) Synthesized mollugin derivatives were subjected to the colonic epithelial cell adhesion assay, which mimics the initial stage of colon inflammation. The inhibition of TNF-α-induced or IL-6-induced adhesion of U937 monocytic cells to HT-29 cells in 10 μM solution of synthesized molecules was measured, and the results are summarized in Table 1 and Table 2. Mesalazine (2), a commercially available medication for the treatment of IBD, and mollugin were chosen as assay positive controls.
(§3) HT-29 human colonic epithelial cells and U937 human pre-monocytic cells were grown in RPMI 1640 medium supplemented with 10% FBS, 100 IU/mL penicillin, and 100 µg/mL streptomycin in a humidified incubator under 5% CO2/95% air.
(§4) U937 monocytic cell adhesion to colonic epithelial cells was evaluated using human U937 pre-monocytic cells, which were prelabeled with 2′,7′-bis(2-carboxyethyl)-5(6)-carboxyfluorescein acetoxymethyl ester (BCECF/AM, 10 μg/mL) for 1 h at 37 °C. HT-29 cells cultured in 24-well plates were pretreated with test compound, 5-ASA, or tofacitinib for 1 h prior to incubation with TNF-α (10 ng/mL) and IL-6 (5 ng/mL) for an additional 3 h. Cells were then co-incubated with BCECF/AM-prelabeled U937 cells (1 × 10^6 cells/well) for 30 min at 37 °C. Non-adhering U937 cells were removed, and the HT-29 cells and adherent U937 cells were washed twice with PBS. Images were captured and processed with a Nikon ECLIPSE TE2000-U microscope and NIS-Elements F software (Nikon, Tokyo, Japan). For quantitative analysis, other sets of cells were lysed in 0.1% Triton X-100 in Tris (0.1 M), and the fluorescence was measured using a fluorescence-detecting microplate reader (Promega , Madison, WI, USA) at […]. Experiments were performed in triplicate and repeated at least three times independently.

[3] = Plasma stability, rat plasma; format: in vitro ADME; conditions: for Plasma Stability (% Remain, 2 h) Rat: 37 °C, 1 μM
Protocol: (§5) The plasma stability assay was performed by incubation of human or rat plasma with a test compound in a final concentration of 1 μM for 120 min at 37 °C. The incubation was terminated by addition of 40 μL of ice-cold acetonitrile and vortexing for 5 min. The precipitated proteins were removed by centrifugation at 14,000× g for 5 min at 4 °C. Aliquots of the supernatant were injected onto a Shimadzu Nexera XR LC system. Percentages of the parent compound remaining were calculated by comparing peak areas using the Xcalibur software (version 1.6.1, Waltham, MA, USA).

[4] = Metabolic stability, mouse liver microsomes; format: in vitro ADME; conditions: for Metabolic Stability (% Remain, 30 min) Mouse: 1 μM
Protocol: as §1

[5] = Plasma stability, human plasma; format: in vitro ADME; conditions: 37 °C, 1 μM
Protocol: as §5

[6] = Metabolic stability, rat liver microsomes; format: in vitro ADME; conditions: for Metabolic Stability (% Remain, 30 min) Rat: 1 μM
Protocol: as §1

[7] = Metabolic stability, human liver microsomes; format: in vitro ADME; conditions: 1 μM
Protocol: as §1

[8] = test system: TNF-α-induced adhesion of U937 monocytic cells to HT-29 cells; assay: TNF-α-induced colonic epithelial cell adhesion assay; format: cell-based, human
Protocol: as §2, §3, §4

hERG channel = target: T1, hERG channel (Homo sapiens, UniProt Q12809); assay: hERG channel binding assay (fluorescence polarization)
T1 construct: purchased Invitrogen PV5365
T1 sequence (Q12809 whole entry): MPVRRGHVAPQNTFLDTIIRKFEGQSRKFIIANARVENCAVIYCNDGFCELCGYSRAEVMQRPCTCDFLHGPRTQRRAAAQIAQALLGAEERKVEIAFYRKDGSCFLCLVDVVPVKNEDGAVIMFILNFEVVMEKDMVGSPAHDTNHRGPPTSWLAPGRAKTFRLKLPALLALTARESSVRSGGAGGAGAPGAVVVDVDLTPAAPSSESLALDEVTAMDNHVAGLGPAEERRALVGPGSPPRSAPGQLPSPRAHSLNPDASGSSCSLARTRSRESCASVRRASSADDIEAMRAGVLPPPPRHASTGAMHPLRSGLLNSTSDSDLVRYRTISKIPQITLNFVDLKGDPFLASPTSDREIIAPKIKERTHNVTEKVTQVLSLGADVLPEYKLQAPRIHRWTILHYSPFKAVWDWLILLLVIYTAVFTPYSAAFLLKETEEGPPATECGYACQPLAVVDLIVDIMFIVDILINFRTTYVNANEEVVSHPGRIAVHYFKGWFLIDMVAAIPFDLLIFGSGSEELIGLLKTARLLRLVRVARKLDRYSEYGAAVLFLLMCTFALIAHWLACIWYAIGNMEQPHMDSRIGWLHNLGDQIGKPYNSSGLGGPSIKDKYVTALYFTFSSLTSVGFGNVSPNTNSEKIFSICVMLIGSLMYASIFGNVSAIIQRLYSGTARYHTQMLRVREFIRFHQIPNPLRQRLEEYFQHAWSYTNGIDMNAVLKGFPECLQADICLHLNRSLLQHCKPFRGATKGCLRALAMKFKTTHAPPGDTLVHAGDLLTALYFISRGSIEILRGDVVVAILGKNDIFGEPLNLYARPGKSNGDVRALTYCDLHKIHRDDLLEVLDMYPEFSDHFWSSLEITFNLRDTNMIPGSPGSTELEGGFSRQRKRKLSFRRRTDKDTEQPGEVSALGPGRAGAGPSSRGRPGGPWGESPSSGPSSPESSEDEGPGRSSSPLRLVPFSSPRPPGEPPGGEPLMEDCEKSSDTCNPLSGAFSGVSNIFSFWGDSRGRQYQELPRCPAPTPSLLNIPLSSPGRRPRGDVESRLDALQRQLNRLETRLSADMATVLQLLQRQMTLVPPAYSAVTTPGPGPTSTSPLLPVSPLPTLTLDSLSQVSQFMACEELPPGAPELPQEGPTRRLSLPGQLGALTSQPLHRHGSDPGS
Protocol: hERG channel binding assay was performed using Invitrogen’s hERG Fluorescence Polarization Assay kit (PV5365) with Synergy Neo plate reader (BioTek, Winooski, VT, USA). The binding assay was carried out according to the kit manufacturer’s instructions.

[9] = test system: TNF-α-induced adhesion of U937 monocytic cells to HT-29 cells; set-up: method as in PMID 19765578; conditions: cell adhesion assay and IBD animal model; cited from earlier work
Serum Amyloid A (SAA) = assay: Serum SAA level in DSS-induced colitis mouse model (ELISA); format: in vivo; conditions: 4% DSS-induced mouse model; mesalazine 20 mM; ELISA
Protocol: The level of Serum Amyloid A (SAA) was measured using a mouse SAA ELISA kit according to the manufacturer’s instructions (E-90SAA, Immunology Consultants Laboratory, Inc., Portland, OR, USA). All samples were assayed in duplicate. The concentrations of SAA were determined by comparison to serial dilutions of purified SAA calibrator.
Figure 2 Analysis of mouse serum amyloid A (SAA) level. Effect of 6d on the level of SAA in the 4% dextran sulfate sodium (DSS)-induced mouse model. The level of SAA in serum was determined by ELISA. The control mice received water + vehicle (water), and the treated groups received 4% DSS + vehicle or DSS with mesalazine (20 mM), 6d (10 μM), or 15c (10 μM). TEXT PRINTED IN THE PICTURE: vehecle: mSS assay (ng/ml): 252.08 | vehecle: mSS assay (ng/ml): 732.93 (4% DSS) | 2: mSS assay (ng/ml): 788.86 (4% DSS) | 6d: mSS assay (ng/ml): 295.77 (4% DSS) | 15c: mSS assay (ng/ml): 300.95 (4% DSS)

[10] = Homo sapiens, Epithelial cell, U937 adhesion to HT-29 cells, IL-6-induced
[11] = Homo sapiens, Epithelial cell, U937 adhesion to HT-29 cells, TNF-α-induced
[12] = human, Invitrogen hERG Fluorescence Polarization Assay kit (PV5365)

| Compound | Metabolic Stability (% Remain, 30 min) Dog [1] [% Remain] | inhibition at 10 µM [2, 10] [%] | Plasma Stability (% Remain, 2 h) Rat [3] [% Remain] | Metabolic Stability (% Remain, 30 min) Mouse [4] [% Remain] | Plasma Stability (% Remain, 2 h) Human [5] [% Remain] | Metabolic Stability (% Remain, 30 min) Rat [6] [% Remain] | Metabolic Stability (% Remain, 30 min) Human [7] [% Remain] | inhibition at 10 µM [8, 11] [%] | IC50 (hERG channel) [µM] | further results |
| --- | --- | --- | --- | --- | --- | --- | --- | --- | --- | --- |
| CC1(C)C=Cc2c(C(=O)OCCCN3CCOCC3)c(O)c3ccccc3c2O1 [6e, 3-Morpholinopropyl 6-hydroxy-2,2-dimethyl-2H-benzo[h]chromene-5-carboxylate] | 42 | 26.6 ± 5.1 | 94 | 24 | 100 | 16 | 36 | 40.1 ± 3.5 | > 10 | – |
| CN1CCC[C@@H]1COC(=O)c1c2c(c3ccccc3c1O)OC(C)(C)C=C2 [6f, (R)-(1-Methylpyrrolidin-2-yl)methyl 6-hydroxy-2,2-dimethyl-2H-benzo[h]chromene-5-carboxylate] | 12 | 38.2 ± 5.1 | 99 | 11 | 100 | 13 | 58 | 48.3 ± 6.2 | > 10 | – |
| CN1CCC(OC(=O)c2c3c(c4ccccc4c2O)OC(C)(C)C=C3)CC1 [6g, 1-Methylpiperidin-4-yl 6-hydroxy-2,2-dimethyl-2H-benzo[h]chromene-5-carboxylate] | 36 | 38.9 ± 5 | 100 | 14 | 100 | 23 | 78 | 54.8 ± 5.2 | > 10 | – |
| CN1CCN(CCOC(=O)c2c3c(c4ccccc4c2O)OC(C)(C)C=C3)CC1 [6h, 2-(4-Methylpiperazin-1-yl)ethyl 6-hydroxy-2,2-dimethyl-2H-benzo[h]chromene-5-carboxylate] | 11 | 18.2 ± 3.1 | 89 | 9 | 79 | 23 | 76 | 42.2 ± 6.4 | 3.3 | inhibition of IL-6-induced monocyte-epithelial adhesion ([2]; 10 μM): reduced % inhibition; inhibition of TNF-α-induced monocyte-epithelial adhesion ([8]; 10 μM): good % inhibition; IC50 (hERG channel; [12]): 3 µM |
| CN1CCN(CCCOC(=O)c2c3c(c4ccccc4c2O)OC(C)(C)C=C3)CC1 [6i, 3-(4-Methylpiperazin-1-yl)propyl 6-hydroxy-2,2-dimethyl-2H-benzo[h]chromene-5-carboxylate] | – | 27.6 ± 4.2 | – | – | – | – | – | 58.5 ± 6.4 | 5.3 | IC50 (hERG channel; [12]): 5 µM |
| CC1(C)C=Cc2c(C(=O)OCCN3CCOCC3)c(O)c3ccc(F)cc3c2O1 [15d, 2-Morpholinoethyl 9-fluoro-6-hydroxy-2,2-dimethyl-2H-benzo[h]chromene-5-carboxylate] | 30 | 75.6 ± 11.5 | 81 | 11 | 94 | 8 | 48 | 47 ± 8.9 | – | – |
| COC(=O)c1c2c(c3ccccc3c1O)OC(C)(C)C=C2 [compound 1, mollugin] | 33 | 40.8 ± 6.2 | 16 | 40 | 92 | 19 | 33 | 37.8 ± 5.7 | > 10 | metabolic stability with dog liver microsomes [1]: generally unstable; stability in rat plasma [3]: unstable; metabolic stability with mouse liver microsomes [4]: generally unstable; metabolic stability with rat liver microsomes [6]: generally unstable; improved efficacy over mesalazine [9]: at least 1000 fold |
| Nc1ccc(O)c(C(=O)O)c1 [compound 2, 5-Aminosalicylic acid, reference compound] | – | – | – | – | – | – | – | – | – | inhibition at 20000 µM ([2]; Homo sapiens, Epithelial cell, at 20 mM, U937 adhesion to HT-29 cells, IL-6-induced): ~30%; % Inhibition IL-6 ([2]; at 20 mM, U937 adhesion to HT-29 cells, IL-6-induced, listed as 2 (5-ASA)): 32.6 ± 7.3 (at 20 mM) %; inhibition at 20000 µM ([8]; Homo sapiens, Epithelial cell, at 20 mM, U937 adhesion to HT-29 cells, TNF-α-induced): ~30%; % Inhibition TNF-α ([8]; at 20 mM, U937 adhesion to HT-29 cells, TNF-α-induced, listed as 2 (5-ASA)): 28.8 ± 7.7 (at 20 mM) %; serum SAA level (mSS assay) (Serum Amyloid A (SAA)): 788.86 ng/mL |
